In US7871995B2, “Drug delivery system comprising a tetrahydroxylated estrogen for use in hormonal contraception” (Pantarhei Bioscience B.V., priority 2001, dated 2011):
Like-named read-outs stand apart in the source and are kept apart here.

What was measured:
[1] = target: T1, human sex Hormone Binding Globulin (SHBG) (Homo sapiens, UniProt P04278); assay: Competitive steroid-binding assay for human SHBG; conditions: for relative binding affinity for human SHBG: rising in the order ethinylestradiol, 17β-estradiol, testosterone, 5α-dihydrotestosterone
T1 construct: Human SHBG was purified from transgenic mouse serum; made in house; host or cells: transgenic mouse (serum)
T1 sequence (P04278 30-402): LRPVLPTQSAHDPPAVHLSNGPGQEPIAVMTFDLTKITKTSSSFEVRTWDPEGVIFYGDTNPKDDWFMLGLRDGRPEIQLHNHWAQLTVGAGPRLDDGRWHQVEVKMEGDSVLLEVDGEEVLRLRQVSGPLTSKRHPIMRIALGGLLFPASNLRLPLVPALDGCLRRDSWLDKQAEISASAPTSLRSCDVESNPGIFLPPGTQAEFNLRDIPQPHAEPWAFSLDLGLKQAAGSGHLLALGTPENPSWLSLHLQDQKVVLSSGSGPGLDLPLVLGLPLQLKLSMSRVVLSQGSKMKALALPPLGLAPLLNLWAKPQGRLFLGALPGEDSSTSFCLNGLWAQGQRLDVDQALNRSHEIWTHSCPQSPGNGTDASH
Procedure: Human SHBG was treated for 30 min at room temperature with a dextran-coated charcoal (DCC) suspension in phosphate buffered saline (PBS) to remove any steroid ligand. After centrifugation (2,000×g for 10 min) to sediment the DCC, the supernatant containing the human SHBG was diluted in PBS to a concentration of 1 nM based on its steroid binding capacity.
The average amounts of [^3H]labeled ligands bound to SHBG at each concentration of competitor (B) were expressed as a percentage of the average amounts of [^3H]labeled ligands bound to SHBG in the absence of competitor (B0), and were. plotted against the concentration of competitor in each assay tube.

[2] = tested on: ovariectomized adult rats (vaginal epithelial cornification); assay: Vaginal cornification bioassay in ovariectomized rats, subcutaneous dosing; type: in vivo, rat
Procedure: Adult intact female CD rats were ovariectomized to induce estrogen deficiency. […] Castrate vaginal smears are indicative that complete ovariectomy was achieved. Treatment commenced following completion of the 7 days of smearing (day 0=first day of dosing). Animals were dosed, once daily for 7 consecutive days. Daily vaginal lavages continued to be obtained for 7 days after dosing was initiated in order to detect vaginal cornification, as an indication of an estrogenic response. A drop of vaginal washings was placed on a glass slide and examined by light microscopy to detect the presence or absence of cornified epithelial cells. Vaginal lavages were obtained prior to dosing on days 0-6 and prior to necropsy on day 7. The vaginal cornification bioassay was performed in order to determine the estrogenic profile of E4 when given subcutaneously (sc) to ovariectomized adult rats. E2 was used as a positive control. […] The occurrence of vaginal cornification, indicative of an estrogenic response, is an “all or none” response. Data are, therefore, expressed as the number of rats showing a vaginal estrogenic response over the number of rats (ratio) treated.

[3] = tested on: four-day cyclic rats (ovulation); assay: Antiovulatory bioassay in four-day cyclic rats, subcutaneous dosing; type: in vivo, rat; conditions: for inhibition of ovulation: EE 1.0-100 μg/kg, E2 and E4 0.1-3.0 mg/kg; for complete ovulation inhibition: twice daily sc, higher dosages
Procedure: Vaginal smears from female rats are obtained daily for two weeks to select four-day cycling rats. Only four-day cyclic rats are to be used for the antiovulatory bioassay. […] One day after the final dose (day 5), rats are euthanized by CO2 asphyxiation at 1 pm, and the number of ova per oviduct is determined. Group means are subsequently calculated for the number of ova per ovulated rat (both oviducts). The ratio of rats ovulating for each treatment group is compared to the ratio for the vehicle-treated rats.

[4] = Elimination half-life after single subcutaneous dose, plasma by HPLC-MS/MS; type: in vivo, rat; conditions: single sc dose, female Sprague Dawley rats, sampling 0.5-24 hours
Procedure: To determine the elimination half-life of estetrol (E4) after subcutaneous administration (sc), single dose studies were performed in female Sprague Dawley rats followed by frequent blood sampling over a 24 hours interval.
Female Sprague Dawley rats were equipped with a permanent silatic heart catheter, as described by Kuipers et al. (1985,Gastroenterology, 88, 403-411). Rats were allowed to recover from surgery for 5 days and were than administered 0.05, 0.5,or 5 mg/kg E4 in 0.5 ml arachidis oil. E4 was injected in the neck area using a 1 ml syringe and 20 g needle. Blood samples were subsequently collected via the heart catheter in heparinized tubes at 0.5, 1, 2, 4, 8 and 24 hours. Erythrocytes were removed by centrifugation at 5000×g for 10 minutes at 4° C. and blood plasma was stored at −20° C. […] With each sample batch, a calibration curve with 6 calibrators was recorded. The calibration curve was calculated using linear regression (correlation coefficient>0.98), which permitted quantitation of plasma concentrations. […]
Plasma E4 concentration data were analysed with “WinNonLin, edition 3.1” and involved pharmacokinetic parameters for Cmax, AUC0-24 and half-life.

[5] = tritium labeled, intravenous, two adult women; cited from earlier work
[6] = tested on: human breast cancer cells (MCF-7); conditions: MCF-7, long term tissue culture; cited from earlier work
immature rat uterus = conditions: subcutaneous, Holinka et al., cited from earlier work
uterus = conditions: continuous administration from a subcutaneous depot; Martucci et al., 1977; cited from earlier work

C[C@]12CCC(=O)C[C@@H]1CC[C@@H]1[C@@H]2CC[C@]2(C)[C@@H](O)CC[C@@H]12 [5α-dihydrotestosterone, reference compound]
relative binding affinity for human SHBG [1]: show an increased relative binding affinity for human SHBG

C[C@]12CC[C@@H]3c4ccc(O)cc4CC[C@H]3[C@@H]1CC[C@@H]2O [17β-estradiol]
Number of Rats Exhibiting Estrogenic Response/Number of Rats Treated ([2]; 0.05 mg/kg/day sc, Day 0): 0/8 | Number of Rats Exhibiting Estrogenic Response/Number of Rats Treated ([2]; 0.05 mg/kg/day sc, Day 1): 0/8 | Number of Rats Exhibiting Estrogenic Response/Number of Rats Treated ([2]; 0.05 mg/kg/day sc, Day 2): 8/8 | Number of Rats Exhibiting Estrogenic Response/Number of Rats Treated ([2]; 0.05 mg/kg/day sc, Day 3): 8/8 | Number of Rats Exhibiting Estrogenic Response/Number of Rats Treated ([2]; 0.05 mg/kg/day sc, Day 4): 8/8 | Number of Rats Exhibiting Estrogenic Response/Number of Rats Treated ([2]; 0.05 mg/kg/day sc, Day 5): 8/8 | Number of Rats Exhibiting Estrogenic Response/Number of Rats Treated ([2]; 0.05 mg/kg/day sc, Day 6): 8/8 | Number of Rats Exhibiting Estrogenic Response/Number of Rats Treated ([2]; 0.05 mg/kg/day sc, Day 7): 8/8 | inhibition of ovulation ([3]; twice daily sc for 4 days): dose-dependently inhibits ovulation | complete ovulation inhibition [3]: complete ovulation inhibition is achieved

C[C@]12CC[C@@H]3c4ccc(O)cc4CC[C@H]3[C@@H]1[C@@H](O)[C@@H](O)[C@@H]2O [estetrol, 1,3,5 (10)-estratrien-3, 15α,16α,17β-tetrol]
Number of Rats Exhibiting Estrogenic Response/Number of Rats Treated ([2]; 1.0 mg/kg/day sc, Day 7, listed as E4): all rats showed a vaginal estrogenic response | Number of Rats Exhibiting Estrogenic Response/Number of Rats Treated ([2]; 3.0 mg/kg/day sc, Day 7, listed as E4): all rats showed a vaginal estrogenic response | onset of vaginal epithelial cornification ([2]; sc 0.1, 0.3, 1.0 and 3.0 mg/kg/day): dose-dependent | day of treatment on which vaginal epithelial cornification started ([2]; sc 0.1, 0.3, 1.0 and 3.0 mg/kg/day, same day as observed for E2): 2 days | plasma levels of unconjugated E4 over a 24 hour interval [4]: detection of bioactive levels of unconjugated E4 at all time points | binding to human SHBG (competitive displacement) ([1]; [3H]DHT as labeled ligand): does not bind at all | binding to human SHBG (competitive displacement) ([1]; [3H]estradiol as labeled ligand): does not bind at all | binding to SHBG compared with the other estrogens tested ([1]; compared with ethinylestradiol and 17β-estradiol): negligible | antiovulatory activity compared with E2 ([3]; twice daily sc for 4 days): equal potency or even more potency in inhibiting ovulation than E2 | inhibition of ovulation ([3]; twice daily sc for 4 days): dose-dependently inhibits ovulation | complete ovulation inhibition [3]: complete ovulation inhibition is achieved | metabolism [5]: virtually no metabolism except for conjugation took place | agonistic potency in in vitro cell proliferation, of the magnitude observed for 17β-estradiol [6]: 2% | uterotrophic activity (immature rat uterus; 1979): very weak uterotrophic activity | uterotrophic activity (immature rat uterus; 1980): very weak uterotrophic activity | uterotrophic activity (uterus): very weak uterotrophic activity

C[C@]12CC[C@H]3[C@@H](CCC4=CC(=O)CC[C@@]43C)[C@@H]1CC[C@@H]2O [testosterone, reference compound]
relative binding affinity for human SHBG [1]: show an increased relative binding affinity for human SHBG
